The values below come from BindingDB's records for doi:10.1021/jm701266y (Lund University, 2008).

This test deals with Galectin-3 (Homo sapiens, UniProt P17931). The test can be described thus: Fluorescence Polarization Assay. To be noted: pH 7.2; 24 °C. How it is done:
In fluorescence polarization measurements, a fluorescent probe was excited with plane-polarized light and the degree of polarization remaining in the emitted light is measured. When the probe is bound to protein, it rotates slower than when free, and the remaining fluorescence polarization is higher. The fluorescent anisotropy value for a probe-protein mixture is the average of the value for bound and free probe. For the direct binding asaay, the data (anisotropy, A in mA vs galectin concentration, [G] in uM) were fitted to a simplified formula to obtain Kd.

Chain of Galectin-3 (P17931 whole entry): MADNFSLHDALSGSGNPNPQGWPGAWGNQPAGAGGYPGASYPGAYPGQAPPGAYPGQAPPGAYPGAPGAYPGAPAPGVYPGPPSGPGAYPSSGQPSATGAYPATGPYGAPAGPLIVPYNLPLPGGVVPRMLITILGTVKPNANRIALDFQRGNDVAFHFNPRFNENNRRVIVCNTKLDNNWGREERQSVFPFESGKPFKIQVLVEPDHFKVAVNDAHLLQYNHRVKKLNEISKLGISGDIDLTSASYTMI

Take `CS[C@@H]1O[C@H](CO)[C@H](O)[C@H](NC(=O)c2ccc(C)cc2)[C@H]1OCc1ccccc1` [N-[(2S,3R,4S,5R,6R)-3-(benzyloxy)-5-hydroxy-6-(hydroxymethyl)-2-(methylsulfanyl)oxan-4-yl]-4-methylbenzamide]: the Kd was 380 µM.
